The results in this text go back to ChEMBL document CHEMBL1157415, “Isolation, structure elucidation, and synthesis of cytotoxic tryptanthrin analogues from Phaius mishmensis” (J Nat Prod, 2008).

Holding throughout (format): functional, cell-based
The test system of one assay is MCF7. As to the kind of experiment: Cytotoxicity against human MCF7 cells.
The subject of a further assay is NCI-H460. As to the kind of experiment: Cytotoxicity against human NCI-H460 cells.
A further assay relates to SF-268. As to the kind of experiment: Cytotoxicity against human SF268 cells.

On to `O=C(CC1(O)c2ccccc2-n2c1nc1ccccc1c2=O)c1ccccc1` (centres undefined), for which the IC50 was greater than 50 µM in the assay on MCF7 (Homo sapiens, MCF7); greater than 50 µM with NCI-H460 (Homo sapiens, NCI-H460); greater than 50 µM in the assay with SF-268 (Homo sapiens, SF-268).

Take `CCC(=O)C(C)C1(O)c2ccccc2-n2c1nc1ccccc1c2=O` (centres undefined): the half-maximal inhibitory concentration (IC50) in the assay with MCF7 (Homo sapiens, MCF7) is 15.8 µM; with NCI-H460 (Homo sapiens, NCI-H460), 13.9 µM; with SF-268 (Homo sapiens, SF-268) it was 24.8 µM.

As to `CCCCCCCCC(=O)CC1(O)c2ccccc2-n2c1nc1ccccc1c2=O` (centres undefined), the IC50 in the assay with MCF7 (Homo sapiens, MCF7) was 40.5 µM; in the assay on NCI-H460 (Homo sapiens, NCI-H460), 42.8 µM; with SF-268 (Homo sapiens, SF-268), greater than 50 µM.

For the compound `O=C1CCCC1C1(O)c2ccccc2-n2c1nc1ccccc1c2=O` (stereo in doubt; 11), the IC50 was found to be 19.7 µM in the assay on MCF7 (mcf7), 19.1 µM in the assay on NCI-H460 (nci-h460) and 34.8 µM with SF-268 (sf-268).

Consider `O=C1CCCC1C1(O)c2ccccc2-n2c1nc1ccccc1c2=O` (stereo in doubt; 12), for which the IC50 in the assay on MCF7 (Homo sapiens, MCF7) was 20.7 µM; in the assay with NCI-H460 (Homo sapiens, NCI-H460) it was 20.6 µM; with SF-268 (Homo sapiens, SF-268) it was 33.9 µM.

For the compound `O=C1/C(=c2\c3ccccc3n3c(=O)c4ccccc4nc23)Nc2ccccc21` [CANDIDINE], the half-maximal inhibitory concentration (IC50) with MCF7 (Homo sapiens, MCF7) was greater than 50 µM; with NCI-H460 (Homo sapiens, NCI-H460), greater than 50 µM; with SF-268 (Homo sapiens, SF-268) it was greater than 50 µM.

With `COC(=O)C1(O)c2ccccc2N=C2C(=O)c3ccccc3N21` (centres undefined) [METHYLISATOID], the half-maximal inhibitory concentration (IC50) in the assay with MCF7 (Homo sapiens, MCF7) was greater than 50 µM; in the assay with NCI-H460 (Homo sapiens, NCI-H460), greater than 50 µM; with SF-268 (Homo sapiens, SF-268), greater than 50 µM.

Turning to `O=C1c2c(O)cccc2-n2c1nc1ccccc1c2=O` [PHAITANTHRIN C], the IC50 in the assay with MCF7 (Homo sapiens, MCF7) was greater than 50 µM; with NCI-H460 (Homo sapiens, NCI-H460), greater than 50 µM; in the assay with SF-268 (Homo sapiens, SF-268) it was greater than 50 µM.

In the case of `O=C1OC[C@@]23Nc4ccccc4C(=O)N2c2ccccc2[C@@H]13` [PHAITANTHRIN D], the IC50 in the assay with MCF7 (Homo sapiens, MCF7) was greater than 50 µM; in the assay on NCI-H460 (Homo sapiens, NCI-H460), greater than 50 µM; with SF-268 (Homo sapiens, SF-268), greater than 50 µM.

Consider `COC(=O)c1c2ccccc2n2c(=O)c3ccccc3[nH]c12` [PHAITANTHRIN E], for which the IC50 in the assay on MCF7 (Homo sapiens, MCF7) is greater than 50 µM; with NCI-H460 (Homo sapiens, NCI-H460), greater than 50 µM; in the assay with SF-268 (Homo sapiens, SF-268), greater than 50 µM.

For `CC(=O)CC1(O)c2ccccc2-n2c1nc1ccccc1c2=O` (centres undefined) [PHAITANTHRINS A], the IC50 is 28.2 µM in the assay with MCF7 (Homo sapiens, MCF7); 31.4 µM with NCI-H460 (Homo sapiens, NCI-H460); 45.4 µM in the assay on SF-268 (Homo sapiens, SF-268).

As to `COC(=O)CC1(O)c2ccccc2-n2c1nc1ccccc1c2=O` (centres undefined) [PHAITANTHRINS B], the concentration for half-maximal inhibition (IC50) is greater than 50 µM in the assay with MCF7 (Homo sapiens, MCF7); greater than 50 µM with NCI-H460 (Homo sapiens, NCI-H460); greater than 50 µM with SF-268 (Homo sapiens, SF-268).

For `O=C1c2ccccc2-n2c1nc1ccccc1c2=O` [TRYPTANTHRIN], the IC50 in the assay with MCF7 (Homo sapiens, MCF7) was 11.1 µM; in the assay on NCI-H460 (Homo sapiens, NCI-H460), 9 µM; with SF-268 (Homo sapiens, SF-268), 24.4 µM.

A word on the IC50: it is the concentration that inhibits the measured activity by half. A lower IC50 goes with greater potency in that assay.
